Assay results: publication PMC3115942 (PLoS ONE, 2011)

System: PANC-1, SUIT-2, PC-3 and FEMX cells
Experiment: In vitro antiproliferative assay (MTS), tumor cell lines
Type: cell-based, human
Conditions: 10 µM, 4 day exposure; across PANC-1, SUIT-2, PC-3 and FEMX
Experimental: Cells were plated at a density of 3000 (THLE-2 and PC-3) and 1000 (PANC-1, SUIT-2 and FEMX) cells per well (on the basis of their growth rate) in 200 µl of medium in a 96-well plate. Medium was changed daily, and after four days, the assay was read using a MTS kit (Promega) according to the instructions of the manufacturer. Graphs display average of percent growth with standard deviation (n = 8).

Cc1cccn2cc(-c3ccc(NC(=O)c4ccccc4Br)cc3)nc12 [MS-0022, 2-bromo-N-(4-(8-methylimidazo[1,2-a]pyridin-2-yl)phenyl)benzamide]
growth reduction (MTS): 40%–70%
